Legend:
[1] = tested on: normal human umbilical cord vein vascular endothelial cells and normal human skin fibroblasts; assay: Measurement of angiogenesis acceleration action (in vitro), hollow organ formation, Example 1; assay type: cell-based
Experimental: An angiogenesis kit (manufactured by Kurabo; constituted from normal human umbilical cord vein vascular endothelial cells and normal human skin fibroblasts) was cultured for 3 hours, and then the culture medium (the medium for angiogenesis use attached to the angiogenesis kit was used as the culture medium and cultured at 37° C. under a moist environment of 5% carbon dioxide-95% air, and a carbon dioxide incubator BNA-121D was used as the incubator) was changed and an agent to be tested was added to each well (0.5 ml/well). The medium exchange was carried out also on the 3rd, 6th and 8th days after commencement of the culturing and the fresh agent to be tested was added. The kind and concentration of the agent to be tested were untreated, solvent (DMSO) 0.1%, Compound 1 10^−9, 10^−8 and 10^−7 mol/l, VEGF-A 0.1, 1 and 10 ng/ml and HGF 0.1, 1 and 10 ng/ml, and the culturing was carried out by using 3 wells for each concentration. Fixation was carried out 10 days after the commencement of culturing, and staining of hollow organ with anti-CD31 antibody was carried out by using a hollow organ staining kit (manufactured by Kurabo). As the evaluation, Chalkley Grid (a grid lens, manufactured by Kurabo) was mounted on the eyepiece of a microscope, and the hollow organ formation was evaluated by counting intersections of the randomly arrange points of Chalkley Grid with the formed hollow organ (by referring to the evaluation method of J. Pathol., 177, 275-283 (1995)). The counting was carried out at 12 positions per well, and the total was calculated.
As the agent to be tested, Compound 1 ((E)-[5-[2-[1-phenyl-1-(3-pyridyl)methylideneaminoxy]ethyl]-7,8-dihydronaphthalen-1-yloxy]acetic acid) was dissolved in dimethyl sulfoxide (DMSO) to prepare 10^−4, 10^−5 and 10^−6 mol/l solutions which were then used by diluting 1/1000 time with the culture medium.
As the VEGF-A (vascular endothelial growth factor-A), the 2 μg/ml solution of VEGF contained in the angiogenesis control reagent kit of Kurabo was diluted with the culture medium and used. […]

[2] = tested on: HGF; assay: Endogenous repair factor protein producing action (in vitro), HGF by ELISA, Example 2; assay type: cell-based, human; conditions: 10^-7 mol/l
Experimental: (§1) An angiogenesis kit (manufactured by Kurabo; constituted from normal human umbilical cord vein vascular endothelial cells and normal human skin fibroblasts) was cultured for 3 hours, and then the culture medium (the medium for angiogenesis use attached to the angiogenesis kit was used as the culture medium and cultured at 37° C. under a moist environment of 5% carbon dioxide-95% air, and a carbon dioxide incubator BNA-121D was used as the incubator) was changed and an agent to be tested was added to each well (0.5 ml/well). The agent to be tested were solvent (DMSO) 0.1% and Compound 1 10^−7 mol/l, and the culturing was carried out by using 3 wells for each. Culture supernatants were collected before commencement of the culturing and 1, 2, 6, 24, 48 and 72 hours after the commencement. HGF and VEGF protein concentrations in the culture supernatants were measured by using an ELISA kit (R % D system-Funakoshi).
(§2) As the agent to be tested, Compound 1 ((E)-[5-[2-[1-phenyl-1-(3-pyridyl)methylideneaminoxy]ethyl]-7,8-dihydronaphthalen-1-yloxy]acetic acid) was dissolved in dimethyl sulfoxide (DMSO) to prepare 10^−4 mol/l solution which was then used by diluting 1/1000 time with the culture medium.
(§3) Results of the solvent control wells were compared with those of the wells treated with the agent to be tested by Dunnett's test (two-sided test). The significance level was set to 5%. […]

[3] = tested on: VEGF; assay: Endogenous repair factor protein producing action (in vitro), VEGF by ELISA, Example 2; assay type: cell-based, human; conditions: 10^-7 mol/l
Experimental: as §1, §2, §3

[4] = tested on: mouse sponge transplantation model; assay: Angiogenesis test using mouse sponge transplantation model, Example 8; assay type: in vivo; conditions: for Hemoglobin content / Sponge wet weight: 15th day; for hemoglobin concentration in the granulation tissue, in words: vs polymer group
Experimental: Under anesthesia, dorsal part of a mouse was incised and a discus urethane sponge (about 5 mm in thickness and 13 mm in diameter) was embedded therein. Administration of the agent was carried out by topically administering it directly into the sponge once a day for a total of 14 times starting on the day of the sponge transplantation model preparation, or on the operation-completed day and 7th day thereafter. On the 15th day after the sponge transplantation, the sponge containing granulation tissue was extracted and observed with the naked eye, and then its wet mass was measured. In addition, this was mixed with distilled water of 4 times larger amount than the wet mass, homogenized and centrifuged, and then the supernatant was subjected to the measurement of the hemoglobin content using Hemoglobin 13-Test Wako (manufactured by Wako Pure Chemical Industries).
• The polylactic acid-glycolic acid copolymer used in Preparation Example 2 was suspended in 0.2 w/v % Tween 80 solution (0.05 ml). In this connection, amount of the polylactic acid-glycolic acid copolymer is identical to the amount contained in Compound 1 MS (200 μg). Compound 1 (20 μg) Group: • Compound 1 (20 μg) was suspended in 0.2 w/v % Tween 80 solution (0.05 ml). Compound 1 (40 μg) Group:
Compound 1 (40 μg) was suspended in 0.2 w/v % Tween 80 solution (0.05 ml).
• Compound 1 (200 μg) was suspended in 0.2 w/v % Tween 80 solution (0.05 ml). Compound 1 MS (200 μg) group: • The microsphere preparation produced in Preparation Example 2 containing […] of Compound 1 was suspended in 0.2 w/v % Tween 80 solution (0.05 ml). Compound 1 MS (400 μg) Group: • The microsphere preparation produced in Preparation Example 2 containing 400 μg of Compound 1 was suspended in 0.2 w/v % Tween 80 solution (0.05 ml). Compound 3 (20 μg) Group: • Compound 3 (20 μg) was suspended in 0.2 w/v % Tween 80 solution (0.05 ml).

[5] = 72 hours of culturing, vs solvent control
[6] = after 72 hours of culturing, average of 3 wells ± SD
[7] = 20 μg into the sponge once a day, 14 days of repeated administration
[8] = 40 μg into the sponge once a day, 14 days of repeated administration
[9] = 200 μg into the sponge, two administrations at 7 day intervals

O=C(O)COc1cccc2c1CCC=C2CCO/N=C(\c1ccccc1)c1cccnc1 [Compound 1, (E)-[5-[2-[1-phenyl-1-(3-pyridyl)methylideneaminoxy]ethyl]-7,8-dihydronaphthalen-1-yloxy]acetic acid]
hollow organ formation (Chalkley Grid count), in words ([1]; 10^-8 and 10^-7 mol/l, 10 days of culturing, vs untreated wells, Dunnett's test, FIG. 1): accelerated hollow organ formation statistically significantly
angiogenesis accelerating effect, strength compared with positive control agents ([1]; co-culture system of human vascular endothelial cells and human fibroblasts): strength equivalent to the positive control agents VEGF-A and HGF
production of HGF protein, in words [2, 5]: accelerated production of HGF protein and VEGF protein statistically significantly
HGF protein concentration in culture supernatant [2, 6]: 518 ± 15 pg/mL
production of VEGF protein, in words [3, 5]: accelerated production of HGF protein and VEGF protein statistically significantly
VEGF protein concentration in culture supernatant [3, 6]: 3034 ± 30 pg/mL
Hemoglobin content [4, 7]: 2.403 ± 0.533 mg/g wet tissue
Sponge wet weight [4, 7]: 0.3843 ± 0.0681 g
hemoglobin concentration in the granulation tissue, in words ([4]; 20 μg, 14 days of repeated administration): showed an increasing tendency, but is not a significant increase
Hemoglobin content [4, 8]: 3.010 ± 0.808 mg/g wet tissue
Sponge wet weight [4, 8]: 0.5136 ± 0.0938 g
hemoglobin concentration in the granulation tissue, in words ([4]; 40 μg, 14 days of repeated administration): showed an increasing tendency, but is not a significant increase
Hemoglobin content [4, 9]: 1.964 ± 0.289 mg/g wet tissue
Sponge wet weight [4, 9]: 0.4123 ± 0.0320 g
hemoglobin concentration in the granulation tissue, in words ([4]; 200 μg, two administrations at 7 day intervals): did not increase

Reference: patent publication US8642630B2, “Endogeneous repair factor production accelerators” (Ono Pharmaceutical Co., Ltd., priority 2002, dated 2014)
